The text below walks through data of patent publication US20240197755A1, “Pharmaceutical composition for use in the therapeutic treatment of cancer and complications of cancer” (priority 2016, published 2024).

The subject of one series is U251/AMD cells. As to conditions: cited from earlier work.
For series [1] the following is noted: rats, oral, 50 mg/kg, 18 consecutive days; cited from earlier work.
For the next series, the system named is HCCLM3 cells. As to conditions: cited from earlier work.
Series [2] has as its system Hep3B (hepatocellular carcinoma). Nature of the series: Antiproliferative effect on Hep3B cell line, 72 h exposure. As to conditions: 72 hours of exposure. Format: cell-based, human. An excerpt: (§1) Different human Hep3B (hepatocellular carcinoma), MCF-7 (breast cancer), DU-145 (prostate cancer) cell lines were studied. They were selected on the basis of their ability to overexpress at least one protein from among reptin, pontin, and survivin. The stromal cells were also studied in order to determine the impact of the composition according to the invention in the tumor microenvironment. These cells were maintained in DMEM and supplemented with 10% fetal bovine serum (FBS) and 1% antibiotic-antimycotic solution (MSP) containing penicillin, streptomycin, and amphotericin B under standard growth conditions (5% CO2, 37° C., humidified atmosphere). The compositions above were dissolved and diluted in DMSO.
(§2) The cells above were treated with increasing solutions for 72 h in complete cell media. All treatment and control protocols were prepared as described previously.

The next series concerns DU-145 (prostate cancer). Nature of the series: Antiproliferative effect on DU-145 cell line, 72 h exposure. It counts as cell-based, human. As to conditions: DU-145, 72 hours of exposure.
Description: as §1, §2

The subject of another series is MCF-7 (breast cancer). Put plainly: Antiproliferative effect on MCF-7 cell line, 72 h exposure. It counts as cell-based, human. As to conditions: MCF-7, 72 hours of exposure.
Description: as §1, §2

With `C=C[C@]1(C)CC[C@@H](C(=C)C)C[C@H]1C(=C)C` [Composition 13-elemene, beta-elemene], the “IC50 of U251/AMD cells” value in the series on U251/AMD cells (AMD, with beta-elemene) was 0.051 µg/mL. Further, the “intracellular accumulation of AMD” value in the series on U251/AMD cells (U251/AMD cells) is “increases the intracellular accumulation of AMD”.

Regarding `C=C(C)[C@@H]1CC[C@]2(C)CC[C@]3(C)[C@H](CC[C@@H]4[C@@]5(C)CC[C@H](O)C(C)(C)[C@@H]5CC[C@]43C)[C@@H]12` [lupeol], in series [1], the “mortality and systemic toxicity” value is reported as “neither mortality nor systemic toxicity”. In addition, the “expression of the BDNF protein” value with HCCLM3 cells (HCCLM3 cells) is on record as “marked decrease”. In the series on HCCLM3 cells (as a function of concentration and time), the “cell proliferation of HCCLM3 cells” value is “inhibits cell proliferation”. The antiproliferative effect result (in series [2]; in the series with DU-145 (prostate cancer); with MCF-7 (breast cancer)) was “more pronounced antiproliferative effect” in each case.

For `O=CC=Cc1ccccc1O` [2-hydroxycinnamaldehyde], the antiproliferative effect entry (in series [2]; in the series with DU-145 (prostate cancer); in the series with MCF-7 (breast cancer)) was “more pronounced antiproliferative effect” each time.
